Results published in patent US12371453B2, “Polypeptide having antibacterial activity, composition for preventing or treating sepsis comprising same, and antibacterial composition” (priority 2019, dated 2025).
Read-outs that look alike come from different tables or passages of the source. Ends that are not written are not given here.

Assays:
[1] = test system: Carbapenem resistant (CR)-Acinetobactor baumannii; test: organism not typed
Procedure: (§1) The antibacterial activity was evaluated according to an antibacterial activity test method for measuring the minimum inhibitory concentration 50 (MIC50; the minimal concentration that kills 50% of bacteria).
(§2) More specifically, 100 μL of a medium was dispensed into each well of a 96-well plate, and in the first column, an antibiotic and a peptide in 200 μL of the medium were dispensed. 1/2 serial dilution was performed from columns 1 to 11 and five types of antibiotic-resistant bacteria (ESBL-resistant E. coli, carbapenem-resistant A. baumannii, carbapenem-resistant Klebsiella pneumoniae, carbapenem-resistant Pseudomonas aeruginosa, colistin-resistant Acinetobactor baumannii), which had been previously cultured, were diluted (OD600 nm value in dilution: approximately 0.0025) and dispensed into each well. The plate was incubated in a 37° C. incubator for 4 hours, and measured at OD600 nm.

[2] = test system: Colistin resistant AB (Acinetobactor baumannii)
Procedure: as §1, §2

ESBL (E. coli) = test system: ESBL (E. coli)
Procedure: as §1, §2

CR-Klebsiella pneumoniae = test system: CR-Klebsiella pneumoniae
Procedure: as §1, §2

[3] = LPS binding affinity by Isothermal Titration Calorimeter (ITC); parameters: species or system E. coli K1; settings: for LPS binding affinity (in words): compared with FP1 (wild type, WT); for Kd: peptide binding to LPS, read-out: Kd (calculated by ITC)
From the text: FPT (ADK 44-54) is denoted by wild type (WT), and peptides in which a point mutation occurred at various sites in WT were manufactured (FP3, FP5, FP6, and FP9). To increase the interaction with LPS in a residue sequence of FP3, peptides were designed based on FP3- and LPS-binding models (FP12-NH2 and FP13-NH2), and peptides were designed by additionally introducing a non-natural amino acid and an amino acid isomer (allomeric D-type amino acid) (allD FP12-NH2, allD FP13-NH2, allD FP-13-9a, allD FP-13-9w, allD FP-13-9k, and allD FP13-NH2 (AcOH)). In addition, an N-terminus PEGylated peptide (PEG-alld FP13-NH2 (AcOH)) was additionally designed, synthesized, and provided by ANYGEN, Co. Ltd. The binding affinity between each of the provided peptides and lipopolysaccharide (LPS) was confirmed through measuring the binding affinity (Kd) using Isothermal Titration Calorimeter (ITC).
Specifically, a method of analyzing binding affinity (Kd) between a peptide and LPS is as follows.
Measurement was carried out using a Malvern MicroCal PEAQ-ITC cell instrument, and the following pretreatment was carried out to confirm interaction with LPS. The amount and morphology of a sample cell are 300 μL and coin-shaped, fixed-in-place, respectively; a syringe rotation rate was 1,200 rpm; and a temperature was 30° C., 35° C. or 25° C.
Before the experiment, LPS and the peptide were previously diluted with PBS, thereby preparing 2 mM LPS and 0.2 mM peptide. 300 μL of the peptide was added into cells in the ITC instrument, which had been washed, and 40 μL of LPS was put into a syringe. After measurement conditions for ITC (temperature, number of injections) were set, the syringe was inserted into the cell, and ITC measurement was started. When the measurement was completed, analysis is performed, and the Kd values of LPS and the peptide were calculated.

[4] = test system: Salmonela typhimurium (ATCC 53648); test: microbe, parasite or virus in culture; settings: Salmonella typhimurium ATCC 53648
Procedure: (§3) To compare the antibacterial activity between the four commercially available antibiotics (ampicillin, gentamicin, levofloxacin and imipenem) and the allD FP13-NH2 (AcOH) peptide, an antibacterial activity test was performed to measure the minimum inhibitory concentrations (MIC50 and MIC80) for gram-negative and gram-positive standard strains (Escherichia coli DH5α, Escherichia coli K1, Acinetobacter baumannii, Pseudomonas aeruginosa, Salmonella enteritidis, Salmonella typhimurium, and Klebsiella pneumoniae).
(§4) More specifically, 100 μL of a medium was dispensed into each well of a 96-well plate, and in the first column, an antibiotic and a peptide in 200 μL of the medium were dispensed. 1/2 serial dilution was performed from columns 1 to 11, and gram-negative and gram-positive bacteria which had been previously cultured were diluted (OD600 nm value in dilution: approximately 0.0025) and dispensed into each well. The plate was incubated in a 37° C. incubator for 4 hours, and measured at OD600 nm.

[5] = test system: Klebiella pneumoniae (ATCC 13883); test: microbe, parasite or virus in culture; settings: Klebsiella pneumoniae ATCC 13883
Procedure: as §3, §4

Escherichia coli K1 = test: microbe, parasite or virus in culture; settings: Escherichia coli K1
Procedure: as §3, §4

[6] = test system: Salmonela enteritidis (ATCC 13076); test: microbe, parasite or virus in culture; settings: Salmonella enteritidis ATCC 13076
Procedure: as §3, §4

[7] = test system: Acinetobacter baumannii (ATCC 19606); test: microbe, parasite or virus in culture; settings: Acinetobacter baumannii ATCC 19606
Procedure: as §3, §4

[8] = test system: Pseudomanas aeruginosa PAO1 (ATCC 47085D-5); test: microbe, parasite or virus in culture; settings: Pseudomonas aeruginosa PAO1
Procedure: as §3, §4

[9] = test system: Escherichia coli DH5α (ATCC PTA-4750); test: microbe, parasite or virus in culture; settings: Escherichia coli DH5α, 4 hours
Procedure: as §3, §4

Substance: KLRVKLRRYLR [FP13]
- MIC50, Carbapenem resistant (CR)-Acinetobactor baumannii [1]: <16 µg/mL
- MIC50, Colistin resistant AB [2]: <62 µg/mL
- MIC50, ESBL (E. coli) (ESBL (E. coli); ESBL): <2 µg/mL
- MIC50, CR-Klebsiella pneumoniae (CR-Klebsiella pneumoniae; CR-): <62 µg/mL

Substance: LRLGVEAKRYLR [FP5]
- LPS binding affinity (in words) [3]: strong LPS binding affinity
- Kd [3]: 854 µM

Substance: LRLGVELKRYLR [FP6]
- LPS binding affinity (in words) [3]: strong LPS binding affinity
- Kd [3]: 11.1 µM

Substance: PEG-KLRVKLRRYLR-NH2 [PEG-alld FP13-NH2 (AcOH)]
- Kd [3]: 17.5 µM

Substance: RLRVKLRRYLR [FP12]
- MIC50, Carbapenem resistant (CR)-Acinetobactor baumannii [1]: <16 µg/mL
- MIC50, Colistin resistant AB [2]: <125 µg/mL
- MIC50, ESBL (E. coli) (ESBL (E. coli); ESBL): <2 µg/mL
- MIC50, CR-Klebsiella pneumoniae (CR-Klebsiella pneumoniae; CR-): <62 µg/mL

Substance: colistin [reference compound]
- MIC50, Carbapenem resistant (CR)-Acinetobactor baumannii ([1]; CR-A. baumannii): <1 µg/mL
- MIC50, Colistin resistant AB ([2]; colistin resistant A. baumannii): No effect
- MIC50, ESBL (E. coli) (ESBL (E. coli); ESBL E. coli): <0.5 µg/mL
- MIC50, CR-Klebsiella pneumoniae (CR-Klebsiella pneumoniae; CR-K. pneumoniae): <125 µg/mL

Substance: gentamicin
- MIC (μg/ml) 50% ([4]; 50% growth inhibition): <0.5 µg/mL
- MIC (μg/ml) 80% ([4]; 80% growth inhibition): <1.0 µg/mL
- MIC (μg/ml) 50% ([5]; 50% growth inhibition): <0.5 µg/mL
- MIC (μg/ml) 80% ([5]; 80% growth inhibition): <1.0 µg/mL
- MIC (μg/ml) 50% (Escherichia coli K1; 50% growth inhibition): <0.5 µg/mL
- MIC (μg/ml) 80% (Escherichia coli K1; 80% growth inhibition): <1.0 µg/mL
- MIC (μg/ml) 50% ([6]; 50% growth inhibition): <0.5 µg/mL
- MIC (μg/ml) 80% ([6]; 80% growth inhibition): <1.0 µg/mL
- MIC (μg/ml) 50% ([7]; 50% growth inhibition): <1.0 µg/mL
- MIC (μg/ml) 80% ([7]; 80% growth inhibition): <2.0 µg/mL
- MIC (μg/ml) 50% ([8]; 50% growth inhibition): <0.5 µg/mL
- MIC (μg/ml) 80% ([8]; 80% growth inhibition): <1.0 µg/mL
- MIC (μg/ml) 50% ([9]; 50% growth inhibition): <0.5 µg/mL
- MIC (μg/ml) 80% ([9]; 80% growth inhibition): <1.0 µg/mL

Substance: klrvklrralr-NH2 [allD FP-13-9a-NH2]
- LPS binding affinity (in words) [3]: strong LPS binding affinity
- Kd [3]: 9.54 µM

Substance: klrvklrrklr-NH2 [allD FP-13-9k-NH2]
- LPS binding affinity (in words) [3]: strong LPS binding affinity
- Kd [3]: 1.99 µM
